Legend:
[1] = target: GARFTase; details: read-out: reported Ki with GARFTase; in vitro assays; cited from earlier work
[2] = target: T1, human GARFTase (formyltransferase domain) (Homo sapiens, UniProt P22102); assay: GAR transformylase; assay type: biochemical; details: ratio of Ki values
T1 sequence (P22102 810-1010 limits assumed): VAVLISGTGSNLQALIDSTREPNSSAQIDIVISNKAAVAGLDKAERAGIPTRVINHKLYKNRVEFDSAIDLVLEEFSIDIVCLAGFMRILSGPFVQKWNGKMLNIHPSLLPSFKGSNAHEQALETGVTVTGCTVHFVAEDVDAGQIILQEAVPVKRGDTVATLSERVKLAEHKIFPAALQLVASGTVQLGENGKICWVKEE

Row | SMILES | Ki [1] [nM] | fold weaker GARFTase inhibition than AGF94 and AGF145 [2]
1 | Nc1nc(N)c(CCCC(C(=O)C(F)(F)F)c2ccc(C(=O)N[C@@H](CCC(=O)O)C(=O)O)cc2)c(=O)[nH]1 (some centres unmarked) [10-trifluoroacetyl antifolate, 10-(trifluoroacetyl)-5,10-dideazaacyclic-5,6,7,8-tetrahydrofolic acid] | 15 | –
2 | Nc1nc2[nH]c(CCCCCCCC(=O)N[C@@H](CCC(=O)O)C(=O)O)cc2c(=O)[nH]1 [AGF147] | – | roughly 1.5 fold

Source: publication PMC5238714 (Biochemistry, 2016)
